Test results: the NIST ThermoML archive (doi:10.1016/j.fluid.2004.11.024)
Where “and” joins values, the source holds several entries; their conditions need not be identical. Equal entries are not always repeated. Numbers after ± are expanded uncertainties.

Settings: Liquid, Transpiration method

Structure (SMILES)	vapor or sublimation pressure (293.3 K) [kPa]	vapor or sublimation pressure (298.1 K) [kPa]	vapor or sublimation pressure (301.2 K) [kPa]	vapor or sublimation pressure (306.2 K) [kPa]	vapor or sublimation pressure (311.2 K) [kPa]	vapor or sublimation pressure (313.3 K) [kPa]	vapor or sublimation pressure (316.3 K) [kPa]	vapor or sublimation pressure (318.2 K) [kPa]	vapor or sublimation pressure (321.3 K)	vapor or sublimation pressure (323.2 K)	vapor or sublimation pressure (295.2 K) [kPa]	vapor or sublimation pressure (303.2 K) [kPa]	vapor or sublimation pressure (311.3 K) [kPa]	vapor or sublimation pressure (313.2 K) [kPa]	vapor or sublimation pressure (318.3 K) [kPa]	vapor or sublimation pressure (293.2 K) [kPa]	vapor or sublimation pressure (298.3 K) [kPa]	vapor or sublimation pressure (328.2 K) [kPa]	further results
CC(C)COc1ccccc1Br [1-bromo-2-isobutoxybenzene]	0.00213 ± 0.00011	0.00325 ± 0.00017	0.00423 ± 0.00022	0.00634 ± 0.00033	0.00954 ± 0.0005	0.01119 ± 0.00059	0.01398 ± 0.00073	0.01628 ± 0.00085	0.02031 ± 0.001 kPa	0.02325 ± 0.0012 kPa	–	–	–	–	–	–	–	–	vapor or sublimation pressure (295.3 K): 0.00252 ± 0.00013 kPa; vapor or sublimation pressure (303.3 K): 0.00511 ± 0.00027 kPa; vapor or sublimation pressure (308.3 K): 0.00753 ± 0.0004 kPa
CC(C)COc1cccc(Br)c1 [1-bromo-3-isobutoxybenzene]	0.00194 ± 0.0001	0.00301 ± 0.00016	–	0.00607 ± 0.00032	–	–	–	–	0.01929 ± 0.001 kPa	0.02231 ± 0.0012 kPa	0.00232 ± 0.00012	0.00465 ± 0.00025	0.00909 ± 0.00048	0.0106 ± 0.00056	0.01567 ± 0.00082	–	–	–	vapor or sublimation pressure (290.2 K): 0.00145 ± 8e-05 kPa; vapor or sublimation pressure (301.1 K): 0.00389 ± 0.0002 kPa; vapor or sublimation pressure (308.1 K): 0.00703 ± 0.00037 kPa; vapor or sublimation pressure (316.1 K): 0.01312 ± 0.00069 kPa
CC(C)COc1ccc(Br)cc1 [1-bromo-4-isobutoxybenzene]	–	–	0.00304 ± 0.00016	0.0048 ± 0.00025	–	0.0081 ± 0.00043	–	–	0.01498 ± 0.00078 kPa	0.01699 ± 0.0009 kPa	–	0.00351 ± 0.00019	0.00687 ± 0.00036	–	0.01175 ± 0.00062	0.00151 ± 8e-05	0.00242 ± 0.00013	0.02634 ± 0.0014	vapor or sublimation pressure (308.4 K): 0.00538 ± 0.00028 kPa; vapor or sublimation pressure (316.2 K): 0.0101 ± 0.00053 kPa; vapor or sublimation pressure (326.3 K): 0.0224 ± 0.0012 kPa; vapor or sublimation pressure (331.2 K): 0.03352 ± 0.0018 kPa; vapor or sublimation pressure (333.2 K): 0.0391 ± 0.002 kPa
Cc1ccc(OCC(C)C)c(Br)c1 [2-bromo-1-isobutoxy-4-methylbenzene]	–	–	0.00132 ± 7e-05	0.00213 ± 0.00011	0.00322 ± 0.00017	–	0.00506 ± 0.00027	0.00591 ± 0.00031	0.00752 ± 0.0004 kPa and 0.00762 ± 0.0004 kPa	0.00914 ± 0.00048 kPa and 0.00897 ± 0.00047 kPa and 0.00883 ± 0.00047 kPa	0.00076 ± 4e-05	–	–	0.00385 ± 0.00021	–	0.0006 ± 3e-05	0.00103 ± 5e-05	0.01293 ± 0.00067	vapor or sublimation pressure (300.2 K): 0.0012 ± 6e-05 kPa; vapor or sublimation pressure (303.1 K): 0.0016 ± 8e-05 kPa; vapor or sublimation pressure (303.8 K): 0.00167 ± 9e-05 kPa; vapor or sublimation pressure (306.1 K): 0.00208 ± 0.00011 kPa; vapor or sublimation pressure (308.2 K): 0.00261 ± 0.00014 kPa; vapor or sublimation pressure (309.1 K): 0.00271 ± 0.00014 kPa; vapor or sublimation pressure (311.1 K): 0.00328 ± 0.00017 kPa; vapor or sublimation pressure (318.7 K): 0.00622 ± 0.00033 kPa; vapor or sublimation pressure (321.2 K): 0.00746 ± 0.00039 kPa; vapor or sublimation pressure (326.2 K): 0.01113 ± 0.00058 kPa
